The results in this text go back to PubChem BioAssay (NCI).

Molecules are shown by their SMILES.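 Where inhibition never reached the appropriate level, the endpoint shown equals the highest concentration tested. Otherwise, values were interpolated linearly from a five-concentration, 48-hour dose response in 96-well plates. GI50 marks 50% less growth. The concentration for full growth arrest is given as TGI.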

Holding throughout (assay): NCI tumour cell line growth inhibition, 48 h
Test [1] relates to OVCAR-3 ovarian.
In test [2] the test system is NCI-H460 lung.
Test [3] relates to HT29 colon.
In test [4] the test system is SF-295 CNS.
Test [5] deals with HL-60(TB) leukemia.
Test [6] concerns COLO 205 colon.
The test system of test [7] is LOX IMVI melanoma.
The subject of test [8] is SNB-19 CNS.
Test [9] deals with HCT-116 colon.
Test [10] concerns SF-268 CNS.

For the compound `Cc1nc2sc(C(=O)Nc3cccc4ccccc34)c(N)c2cc1C(O)c1ccccc1` (stereo not given), the GI50 is 0.0317 µM in [1]; 0.0381 µM in test [2]; 0.038 µM in test [3]; 0.0513 µM in [4]; 0.0376 µM in [5]; 0.349 µM in test [6]. For the same compound, the GI50 in test [7] was 0.0568 µM; in [8], 0.108 µM; in test [9], 0.0439 µM; in test [10] it was 0.174 µM. Also, the TGI in test [1] worked out at 0.0976 µM; in test [2] it was 0.449 µM; in test [3] it was 14.1 µM; in test [4] it was 4.42 µM; in test [5], 0.194 µM; in [6], 2.28 µM. Also, the TGI is 6.67 µM in [7], greater than 66.7 µM in [8], 10.9 µM in test [9] and 11.2 µM in test [10].
Take `CNC(=O)c1ccc(N2C(=S)N(c3ccc(C#N)c(C(F)(F)F)c3)C(=O)C2(C)C)cc1F`: the GI50 in [1] was 36.5 µM; in test [2], 28.2 µM; in test [3] it was 43.3 µM; in test [4], 28.9 µM; in test [5] it was 33.7 µM; in test [6], 32 µM. Moreover, the GI50 in [7] was 36.5 µM; in test [8], greater than 61.2 µM; in test [9] it was 23.9 µM; in [10], greater than 52.3 µM. Also, the TGI in [1] is greater than 84.5 µM; in test [2], greater than 74.3 µM; in [3], greater than 100 µM; in test [4], greater than 75.9 µM; in [5], greater than 100 µM; in [6], greater than 57.7 µM. The TGI in test [7] was greater than 62.2 µM; in test [8], greater than 100 µM; in [9] it was greater than 58.2 µM; in [10], greater than 100 µM.
Take `c1cc(N2CCCN(c3ccc(C4=NCCCN4)cc3)CC2)ccc1C1=NCCCN1`: the GI50 is greater than 100 µM in test [1]; 36.7 µM in test [2]; greater than 100 µM in [3]; 51.1 µM in test [4]; greater than 100 µM in [5]; greater than 100 µM in test [6]. For the same compound, the GI50 in test [7], in [8], in [9] and in test [10] was greater than 100 µM in each case. Also, the TGI in test [1], in test [2], in [3], in test [4], in [5] and in test [6] was greater than 100 µM in each case. The TGI in test [7], in [8], in test [9] and in test [10] was greater than 100 µM throughout.
`C=C1C(=O)OC2C1CCC(C)C1C=CC(=O)C12C` (stereo not given): the TGI in [1] was 3.37 µM; in test [2] it was 18.9 µM; in [3], 4.53 µM; in test [4], 18.1 µM; in test [5], 4.85 µM; in test [6] it was 5.74 µM. Moreover, the TGI in test [7] amounted to 5.25 µM; in [8], 46.1 µM; in test [9] it was 3.91 µM; in test [10], 39.5 µM.
Consider `COc1ccc(NC([Se])=NC23CC4CC(CC(C4)C2)C3)cc1`, for which the GI50 is 1.39 µM in test [1]; 1.98 µM in test [2]; 2.64 µM in test [3]; 1.52 µM in [4]; 2.15 µM in [5]; 1.66 µM in test [6]. Further, the GI50 in test [7] was 1.91 µM; in test [8], 1.86 µM; in [9], 1.28 µM; in test [10], 3.55 µM. For the same compound, the TGI in test [1] is 3.21 µM; in test [2], 10.7 µM; in test [3], 15 µM; in [4], 4.15 µM; in test [5] it was 5.91 µM; in [6] it was 3.95 µM. For the same compound, the TGI in test [7] was 5.09 µM; in [8], 50.6 µM; in [9] it was 2.78 µM; in test [10], greater than 100 µM.
Consider `Cc1ccc2c(-c3ccnc(Nc4ccccc4)n3)c(-c3ccc(F)cc3)nn2n1`, for which the GI50 in test [1] is 4.98 µM; in [2], 5.24 µM; in test [3], 2.34 µM; in test [4], 11.3 µM; in [5], 9.56 µM; in test [6], 11.1 µM. Moreover, the GI50 in test [7] was 5.92 µM; in test [8] it was 14.4 µM; in test [9] it was 4.48 µM; in [10], 11.1 µM. For the same compound, the TGI in test [1] was greater than 22.8 µM; in test [2], 15.1 µM; in test [3], greater than 19.2 µM; in test [4] it was greater than 25 µM; in test [5], greater than 25 µM; in test [6], greater than 25 µM. Further, the TGI in [7] is greater than 25 µM; in test [8], greater than 25 µM; in test [9], 14.6 µM; in test [10], greater than 25 µM.
Regarding `O=C(O)CCCSc1ccccc1`, the TGI in test [1], in test [2], in test [3], in [4], in test [5] and in test [6] was greater than 100 µM each time. Moreover, the TGI in test [7], in test [8], in test [9] and in [10] was greater than 100 µM each time.
Turning to `O=C(O)c1ccc(Oc2nccc(-c3c(-c4ccc(F)cc4)ncn3C3CCNCC3)n2)cc1`, the GI50 in test [1], in [2], in [3], in test [4], in test [5] and in test [6] was greater than 25 µM throughout. Further, the GI50 in test [7], in test [8], in test [9] and in test [10] was greater than 25 µM in each case. Besides, the TGI in test [1], in test [2], in test [3], in [4], in test [5] and in test [6] was greater than 25 µM in each case. Further, the TGI in [7], in test [8], in test [9] and in test [10] was greater than 25 µM in each case.
In the case of `O=C1NC(=O)C(c2ccccc2Cl)=C1Nc1cc(Cl)c(O)c(Cl)c1`, the GI50 in test [1] was 9.7 µM; in test [2] it was greater than 25 µM; in test [3], 14.2 µM; in test [4], greater than 25 µM; in test [5], 9.75 µM; in [6], greater than 18.1 µM. Also, the GI50 in [7] is 11.3 µM; in test [8], greater than 25 µM; in [9], 13.6 µM; in test [10], 12.1 µM. The TGI is 24.9 µM in [1]; greater than 25 µM in [2]; greater than 25 µM in test [3]; greater than 25 µM in [4]; greater than 25 µM in [5]; greater than 25 µM in test [6]. Moreover, the TGI in [7], in test [8], in test [9] and in test [10] was greater than 25 µM in each case.
